Data published in patent US20110039824A1, “1,2,3,6-tetrahydroazepino[4,5-b]indole-5-carboxylate nuclear receptor inhibitors” (Wyeth, priority 2008, published 2011).
Structures can show the parent of a compound that is named as a salt.

How the values were obtained:
Gal4/hFXR fusion protein [1] = molecular target: T1, Gal4/hFXR fusion protein (Homo sapiens, UniProt Q96RI1); assay: Gal4/hFXR fusion protein agonist activity in human 293 cells (luciferase); type: cell-based; parameters: Potency Range; other: Gal4/FXR agonist potency in 293 cells; conditions: Gal4/FXR agonist potency in 293 cells; table does not say whether hFXR or mFXR; read-out: Potency Range
T1 sequence (Q96RI1 262-486 limits assumed): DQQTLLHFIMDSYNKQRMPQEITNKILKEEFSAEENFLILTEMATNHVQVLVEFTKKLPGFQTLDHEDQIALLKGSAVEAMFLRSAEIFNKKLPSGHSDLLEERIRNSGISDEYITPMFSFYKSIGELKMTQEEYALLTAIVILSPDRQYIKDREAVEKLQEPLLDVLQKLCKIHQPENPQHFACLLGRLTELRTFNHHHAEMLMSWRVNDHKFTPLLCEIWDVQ
Protocol: (§1) • Assay Medium: Phenol red free high glucose Dulbecco's modified Eagle's medium with sodium pyruvate (Cellgro, #17-205-CV) supplemented with 10% fetal bovine serum (Gibco, 16000-044), 1% glutamax (Gibco, 35050-061), 100 units/mL penicillin and 100 μg/mL streptomycin (Gibco, 15140-122). • Culturplate-96 (PerkinElmer, 6005688) • Lysis buffer (Promega, E3971) • Luciferase assay reagent (Promega E1483)
(§2) • 1. Compounds to be tested were prepared as 2× stocks in assay medium. • 2. […] The supernatant was removed and the cells were resuspended in 1 ml assay medium. The cells were counted and diluted in assay medium to 200,000 cells per ml. The cells were then plated at 10,000 cells per well in Culturplate-96 plates in 50 uL assay medium. The cells were incubated at 37° C. for approximately 1 hour. • 3. […] All assays included 1 uM GW4064 (Maloney et al., J. Med. Chem., 2000, 43(16), 2971-2974) as a reference standard. • 4. Cells were incubated for 24 hours at 37° C.
• 5. The medium was removed, and the cells were lysed in 25 uL lysis buffer (Promega, E3971). • 6. The plates were analyzed for luciferase activity with luciferase assay reagent (Promega E1483). Plates were read on Victor^3V instrument using the protocol “Shuguang Luciferase assay” (dispense volume=100 uL, plate type=“Packard Viewplate”, measurement height=8 mm from bottom of plate, 5 second read per well).
• 1. For agonist single point screening, data were analyzed in Excel. Each compound was tested in triplicate. • 2. For agonist potency determinations, statistical analysis of the data was performed using a customized Excel/SAS program. Dose response curves were generated using a four parameter (min, max, slope, and EC50 where EC50 is defined as the concentration which corresponds to midway between the estimated max and min) logistic model using log-transformed data (data was transformed on both sides with known lambda=0). • 3.

PAMPA permeability = type: in vitro ADME
[2] = Solubility in 2% Tween/0.5% MC aq.; type: physicochemical
[3] = molecular target: T2, Progesterone Receptor (PR) (Homo sapiens, UniProt P06401); assay: Progesterone receptor (PR) antagonism, alkaline phosphatase assay in T47D cells; type: cell-based; conditions: percent inhibition @ 10 μM vs 1 nM progesterone
T2 sequence (P06401 679-933 limits assumed): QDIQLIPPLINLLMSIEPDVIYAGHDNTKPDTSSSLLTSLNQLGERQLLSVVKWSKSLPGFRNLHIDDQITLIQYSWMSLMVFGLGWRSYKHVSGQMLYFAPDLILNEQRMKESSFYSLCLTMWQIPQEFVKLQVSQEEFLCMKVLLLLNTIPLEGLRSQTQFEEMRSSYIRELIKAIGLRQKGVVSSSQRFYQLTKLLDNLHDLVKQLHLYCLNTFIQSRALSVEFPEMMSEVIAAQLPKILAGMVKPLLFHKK
Protocol: DMEM:F12 (1:1) (GIBCO, BRL) supplemented with 5% (v/v) charcoal stripped fetal bovine serum (not heat-inactivated), 100 U/ml penicillin, 100 jig/ml streptomycin, and 2 mM GlutaMax (GIBCO, BRL).
I. 0.1M Tris-HCl, pH 9.8, containing 0.2% Triton X-100 II. 0.1 M Tris-HCl, pH 9.8, containing 4 mM p-nitrophenyl phosphate (Sigma).
Frozen T47D cells were thawed in a 37° C. water bath and diluted to 280,000 cells/ml in culture medium. To each well in a 96-well plate (Falcon, Becton Dickinson Labware), 180 μl of diluted cell suspension was added. Twenty μl of reference or test compounds diluted in the culture medium were then added to each well. When testing for progestin antagonist activity, reference antiprogestins or test compounds were added in the presence of 1 nM progesterone. The cells were incubated at 37° C. in a 5% CO2/humidified atmosphere for 24 hours.
At the end of treatment, the medium was removed from the plate. Fifty μl of assay buffer I was added to each well. The plates were shaken in a titer plate shaker for […]. Then 150 μl of assay buffer II was added to each well. Optical density measurements were taken at 5 min intervals for 30 min at a test wavelength of 405 nm.

LDLR KO Mouse Model = assay: Mouse serum triglyceride (TG) and cholesterol levels in LDLR -/- mice; type: in vivo; conditions: daily oral gavage 7 days
Protocol: Eight-week old LDLR −/−mice were purchased from Jackson Laboratories and maintained on a chow diet. Some LDLR −/−mice were fed a western diet (AlN-76A; Purina Test Diets) as indicated. All mice were treated by daily oral gavage with vehicle or varying concentrations of compound for 7 days. On the last day after the final dose, the food was removed to allow a 3 hr fast and serum was harvested for analysis. Serum TG and cholesterol levels were determined using a Roche 912 clinical chemistry analyzer and expressed as mg/dL.

Caco2 = Caco2 permeability; type: in vitro ADME
hERG = hERG (Homo sapiens, UniProt Q12809); assay: hERG function; conditions: values printed as concentrations; read-out: hERG function (% Inh. @ 10 μM)
hERG, sequence (Q12809 whole entry): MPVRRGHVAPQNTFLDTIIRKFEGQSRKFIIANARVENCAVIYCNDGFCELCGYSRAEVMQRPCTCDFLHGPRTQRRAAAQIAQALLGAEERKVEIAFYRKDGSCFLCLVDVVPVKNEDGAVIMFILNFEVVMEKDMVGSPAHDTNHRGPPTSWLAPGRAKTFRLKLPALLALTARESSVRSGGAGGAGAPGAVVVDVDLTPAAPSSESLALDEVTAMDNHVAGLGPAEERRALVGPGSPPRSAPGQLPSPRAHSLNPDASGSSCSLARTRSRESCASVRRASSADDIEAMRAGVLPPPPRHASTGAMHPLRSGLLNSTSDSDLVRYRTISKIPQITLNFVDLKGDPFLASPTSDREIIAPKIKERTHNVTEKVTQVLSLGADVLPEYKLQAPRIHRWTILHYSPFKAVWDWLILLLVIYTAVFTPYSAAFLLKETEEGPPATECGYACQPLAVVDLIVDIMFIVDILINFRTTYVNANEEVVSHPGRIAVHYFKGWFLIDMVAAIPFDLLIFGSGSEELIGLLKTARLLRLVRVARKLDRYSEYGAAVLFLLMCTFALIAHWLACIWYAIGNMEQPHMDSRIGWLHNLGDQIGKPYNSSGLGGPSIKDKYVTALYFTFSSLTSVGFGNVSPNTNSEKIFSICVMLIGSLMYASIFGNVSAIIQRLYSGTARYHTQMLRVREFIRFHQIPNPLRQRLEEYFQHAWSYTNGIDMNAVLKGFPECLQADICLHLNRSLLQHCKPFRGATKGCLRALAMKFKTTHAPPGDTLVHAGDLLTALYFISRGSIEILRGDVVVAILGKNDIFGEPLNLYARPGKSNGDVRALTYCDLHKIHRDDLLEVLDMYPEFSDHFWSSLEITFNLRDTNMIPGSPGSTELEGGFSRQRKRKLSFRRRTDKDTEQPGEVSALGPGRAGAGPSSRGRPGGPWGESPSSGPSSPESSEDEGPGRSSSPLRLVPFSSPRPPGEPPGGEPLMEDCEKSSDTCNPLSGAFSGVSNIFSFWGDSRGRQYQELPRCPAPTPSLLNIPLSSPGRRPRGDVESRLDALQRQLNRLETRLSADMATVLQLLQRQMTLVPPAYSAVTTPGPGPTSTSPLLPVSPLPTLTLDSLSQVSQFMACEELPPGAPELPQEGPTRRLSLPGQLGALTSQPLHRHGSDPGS

[4] = Pharmacokinetics (bioavailability, half life); type: in vivo
CYP450 2C9 = CYP450 2C9 (Homo sapiens, UniProt P11712); assay: CYP450 2C9 inhibition; type: in vitro ADME
CYP450 2C9, sequence (P11712 whole entry): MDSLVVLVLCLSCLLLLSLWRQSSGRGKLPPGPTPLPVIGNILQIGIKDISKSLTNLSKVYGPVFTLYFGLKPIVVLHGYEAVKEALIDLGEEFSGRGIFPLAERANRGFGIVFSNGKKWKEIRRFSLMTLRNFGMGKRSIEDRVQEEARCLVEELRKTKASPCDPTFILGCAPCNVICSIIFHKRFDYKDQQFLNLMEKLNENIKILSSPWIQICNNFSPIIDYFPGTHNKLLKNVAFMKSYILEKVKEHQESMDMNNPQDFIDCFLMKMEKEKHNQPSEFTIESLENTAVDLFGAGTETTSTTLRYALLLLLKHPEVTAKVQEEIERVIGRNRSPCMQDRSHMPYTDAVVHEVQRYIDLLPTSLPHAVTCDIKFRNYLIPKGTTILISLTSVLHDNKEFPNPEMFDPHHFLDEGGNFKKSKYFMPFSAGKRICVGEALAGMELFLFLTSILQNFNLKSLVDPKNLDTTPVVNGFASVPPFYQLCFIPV

CYP450 2D6 = CYP450 2D6 (Homo sapiens, UniProt P10635); assay: CYP450 2D6 inhibition; type: in vitro ADME
CYP450 2D6, sequence (P10635 whole entry): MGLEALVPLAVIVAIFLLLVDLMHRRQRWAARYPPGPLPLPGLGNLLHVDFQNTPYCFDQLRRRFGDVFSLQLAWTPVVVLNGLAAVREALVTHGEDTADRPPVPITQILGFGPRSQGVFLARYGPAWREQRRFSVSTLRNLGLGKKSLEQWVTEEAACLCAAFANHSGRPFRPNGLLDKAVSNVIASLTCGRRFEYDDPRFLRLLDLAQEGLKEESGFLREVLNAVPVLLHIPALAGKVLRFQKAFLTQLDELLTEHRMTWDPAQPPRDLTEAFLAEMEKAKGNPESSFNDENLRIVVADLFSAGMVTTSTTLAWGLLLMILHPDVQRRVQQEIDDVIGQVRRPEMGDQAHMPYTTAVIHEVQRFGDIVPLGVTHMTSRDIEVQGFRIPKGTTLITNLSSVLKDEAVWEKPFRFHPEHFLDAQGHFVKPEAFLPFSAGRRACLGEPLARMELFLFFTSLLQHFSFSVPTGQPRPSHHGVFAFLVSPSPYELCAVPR

CYP450 3A4 = CYP450 3A4 (Homo sapiens, UniProt P08684); assay: CYP450 3A4 inhibition; type: in vitro ADME
CYP450 3A4, sequence (P08684 whole entry): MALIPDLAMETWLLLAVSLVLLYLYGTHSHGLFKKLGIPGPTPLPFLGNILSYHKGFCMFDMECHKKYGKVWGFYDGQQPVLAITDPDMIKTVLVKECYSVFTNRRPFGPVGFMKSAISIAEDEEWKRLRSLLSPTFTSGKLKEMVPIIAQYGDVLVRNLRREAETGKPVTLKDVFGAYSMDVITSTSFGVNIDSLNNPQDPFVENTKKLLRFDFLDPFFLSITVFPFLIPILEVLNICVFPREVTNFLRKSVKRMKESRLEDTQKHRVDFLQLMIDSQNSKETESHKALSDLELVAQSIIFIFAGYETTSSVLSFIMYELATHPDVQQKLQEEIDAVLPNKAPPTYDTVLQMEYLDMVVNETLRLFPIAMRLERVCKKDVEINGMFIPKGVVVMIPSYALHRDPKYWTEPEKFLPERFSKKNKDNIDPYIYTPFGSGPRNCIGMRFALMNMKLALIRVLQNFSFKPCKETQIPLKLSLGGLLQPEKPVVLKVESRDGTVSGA

HLM stability = type: in vitro ADME; conditions: human, liver microsomes; read-out: HLM (t1/2)
Gal4/hFXR fusion protein [5] = molecular target: T1, Gal4/hFXR fusion protein; assay: Gal4/hFXR fusion protein agonist activity in human 293 cells (luciferase); type: cell-based; parameters: rows headed: hFXR agonist EC50; hFXR agonist eff. @ 30 μM; other: efficacy @ 30 μM; conditions: efficacy @ 30 μM
Protocol: as §1, §2
• 5. […] The plates were analyzed for luciferase activity with luciferase assay reagent (Promega E1483). Plates were read on Victor^3V instrument using the protocol “Shuguang Luciferase assay” (dispense volume=100 uL, plate type=“Packard Viewplate”, measurement height=8 mm from bottom of plate, 5 second read per well).
• 1. For agonist single point screening, data were analyzed in Excel. […]

| Compound | EC50 (Gal4/hFXR fusion protein [1]) | PAMPA Permeability (Pe × 10^−6) (PAMPA permeability) | 2% Tween/0.5% MC aq. sol. (mg/mL) [2] | 2% Tween/0.5% MC aq. sol. (μM) [2] | PR Antagonism (Alk. Phos. Assay @ 10 μM) [3] | Reduction of Total Cholesterol in a LDLR KO Mouse Model (Female) @ 10 mpk (LDLR KO Mouse Model) | Reduction of Triglycerides in a LDLR KO Mouse Model (Female) @ 10 mpk (LDLR KO Mouse Model) | Reduction of Total Cholesterol in a LDLR KO Mouse Model (Male) @ 10 mpk (LDLR KO Mouse Model) | Reduction of Triglycerides in a LDLR KO Mouse Model (Male) @ 10 mpk (LDLR KO Mouse Model) | Transport mechanism (Caco2) | further results |
| --- | --- | --- | --- | --- | --- | --- | --- | --- | --- | --- | --- |
| CC(C)OC(=O)C1=CN(C(=O)c2cccc(CN3[C@@H](C)CC[C@@H]3C)c2)CC(C)(C)c2c1[nH]c1ccccc21 [Example 16, Isopropyl 3-(3-{[(2S,5S)-2,5-dimethylpyrrolidin-1-yl]methyl}benzoyl)-1,1-dimethyl-1,2,3,6-tetrahydroazepino[4,5-b]indole-5-carboxylate] | 1 to 10 µM | – | – | – | – | – | – | – | – | – | – |
| CC(C)OC(=O)C1=CN(C(=O)c2cccc(CNC3CCCCC3)c2)CC(C)(C)c2c1[nH]c1ccccc21 [Example 17, Isopropyl 3-{3-[(cyclohexylamino)methyl]benzoyl}-1,1-dimethyl-1,2,3,6-tetrahydroazepino[4,5-b]indole-5-carboxylate] | 0.5 to 1 µM | – | – | – | – | – | – | – | – | – | – |
| CC(C)OC(=O)C1=CN(C(=O)c2cccc(CN(C)C3CCCCC3)c2)CC(C)(C)c2c1[nH]c1ccccc21 [Example 18, Isopropyl 3-(3-{[cyclohexyl(methyl)amino]methyl}benzoyl)-1,1-dimethyl-1,2,3,6-tetrahydroazepino[4,5-b]indole-5-carboxylate] | 0.5 to 1 µM | – | – | – | – | – | – | – | – | – | – |
| CC(C)OC(=O)C1=CN(C(=O)c2cccc(CN3CCC(O)CC3)c2)CC(C)(C)c2c1[nH]c1ccccc21 [Example 19, Isopropyl 3-{3-[(4-hydroxypiperidin-1-yl)methyl]benzoyl}-1,1-dimethyl-1,2,3,6-tetrahydroazepino[4,5-b]indole-5-carboxylate] | 0.5 to 1 µM | – | – | – | – | – | – | – | – | – | – |
| CC(C)OC(=O)C1=CN(C(=O)c2cccc(CN3CCCC(C(N)=O)C3)c2)CC(C)(C)c2c1[nH]c1ccccc21 (stereo not shown) [Example 20, isopropyl 3-{3-[(3-carbamoylpiperidin-1-yl)methyl]benzoyl}-1,1-dimethyl-1,2,3,6-tetrahydroazepino[4,5-b]indole-5-carboxylate] | 0.5 to 1 µM | – | – | – | – | – | – | – | – | – | – |
| CC(C)OC(=O)C1=CN(C(=O)c2cccc(CN3CCS(=O)(=O)CC3)c2)CC(C)(C)c2c1[nH]c1ccccc21 [Example 21, Isopropyl 3-{3-[(1,1-dioxidothiomorpholin-4-yl)methyl]benzoyl}-1,1-dimethyl-1,2,3,6-tetrahydroazepino[4,5-b]indole-5-carboxylate] | 0.5 to 1 µM | – | – | – | – | – | – | – | – | – | – |
| CC(C)OC(=O)C1=CN(C(=O)c2cccc(CNC3CCNCC3)c2)CC(C)(C)c2c1[nH]c1ccccc21 [Example 22, Isopropyl 1,1-dimethyl-3-{3-[(piperidin-4-ylamino)methyl]benzoyl}-1,2,3,6-tetrahydroazepino[4,5-b]indole-5-carboxylate dihydrochloride] | 1 to 10 µM | – | – | – | – | – | – | – | – | – | – |
| CC(C)OC(=O)C1=CN(C(=O)c2ccc(OCCCN3CCOCC3)cc2)CC(C)(C)c2c1[nH]c1cc(F)ccc21 [Example 30, Isopropyl 8-fluoro-1,1-dimethyl-3-[4-(3-morpholin-4-ylpropoxy)benzoyl]-1,2,3,6-tetrahydroazepino[4,5-b]indole-5-carboxylate] | – | 0.66 × 10^−6 | 0.20 mg/mL | 355.0 µM | 95% | 60% | 65% | 74% | 78% | passive | Caco2 Permeability (Pe × 10^−6) A-B (Caco2): 0.8 × 10^−6; Caco2 Permeability (Pe × 10^−6) B-A (Caco2): 0.8 × 10^−6 |
| CC(C)OC(=O)C1=CN(C(=O)c2ccc(OCCCN3CCOCC3)cc2)CC(C)(C)c2c1[nH]c1ccccc21 [Reference Compound 1, 1-methylethyl-1,1-dimethyl-3-({4-[(3-morpholin-4-ylpropyl)oxy]phenyl}carbonyl)-1,2,3,6-tetrahydroazepino[4,5-b]indole-5-carboxylate] | – | 0 × 10^−6 | 0.19 mg/mL | 332.0 µM | 90% | 40% | 25% | 49% | 59% | passive | – |
| CC(C)OC(=O)C1=CN(C(=O)c2ccc(F)c(F)c2)CC(C)(C)c2c1[nH]c1ccccc21 [Reference Compound 2, isopropyl-3-(3,4-difluorobenzoyl)-1,1-dimethyl-1,2,3,6-tetrahydroazepino[4,5-b]indole-5-carboxylate] | – | 0 × 10^−6 | 0.01 mg/mL | 22.0 µM | 44% @ 10 μM | 36% | 39% | 47% | 71% | passive | IC50 (hERG): > 10 µM; Bioavailability (dosed in aqueous MC/Tween) [4]: poor; CYP450 2C9 % I @ 3 μM (CYP450 2C9): 24%; CYP450 2D6 % I @ 3 μM (CYP450 2D6): 5%; CYP450 3A4 % I @ 3 μM (CYP450 3A4): 43%; half-life (HLM stability): 18 min; Caco2 Permeability (Pe × 10^−6) A-B (Caco2): 0.5 × 10^−6; Caco2 Permeability (Pe × 10^−6) B-A (Caco2): 0.5 × 10^−6; Caco2 Permeability, class (Caco2; class in words): Low; hFXR agonist eff. @ 30 μM (Gal4/hFXR fusion protein [5]): 179% |
